{"source": "paper PMC11228755", "about": "(RSC Advances, 2024)", "key": {"[1]": {"test_system": "Salmonella typhimurium TA102", "details": "positive control, 20 μg per plate, +S9"}, "[2]": {"test_system": "Salmonella typhimurium TA97a", "test": "Ames test", "details": "positive control, 50 μg per plate, −S9"}, "[3]": {"test_system": "Salmonella typhimurium TA98", "test": "Ames test", "details": "positive control, 50 μg per plate, −S9"}, "[4]": {"test_system": "Salmonella typhimurium TA1535", "test": "Ames test", "details": "positive control, 1 μg per plate, −S9"}, "[5]": {"test_system": "Salmonella typhimurium TA100", "test": "Ames test", "details": "positive control, 1 μg per plate, −S9"}}, "note": "“And” between values parts separate entries of the source, which are not always exact repeats. Equal values may be shown once. Marks after values point to notes of the source that are not given here.", "data": [{"smiles": "Nc1ccc2cc3ccccc3cc2c1", "note": "[2-Aminoanthracene, 2-aminoanthracene]", "values": [{"measurement": "Number of revertants TA102", "setting": "[1]", "result": "2121 ± 21 ^e"}]}, {"smiles": "CN(C)c1ccc(N=NS(=O)(=O)[O-])cc1.[Na+]", "note": "[Dioxone, dioxone]", "values": [{"measurement": "Number of revertants TA97a", "setting": "[2]", "result": "1872 ± 104 ^a"}, {"measurement": "Number of revertants TA98", "setting": "[3]", "result": "1111 ± 117 ^a"}]}, {"smiles": "[N-]=[N+]=[N-].[Na+]", "note": "[Sodium azide, sodium azide]", "values": [{"measurement": "Number of revertants TA1535", "setting": "[4]", "result": "1190 ± 40 ^c and 1333 ± 53 ^c"}, {"measurement": "Number of revertants TA100", "setting": "[5]", "result": "1697 ± 54 ^c"}]}]}
